Reference: patent US20230190663A1, “PRUSSIAN BLUE NANOPARTICLES FUNCTIONALIZATION WITH LATENCY REVERSING AGENTS AND BROADLY NEUTRALIZING ANTIBODIES, AND APPLICATIONS THEREOF” (THE GEORGE WASHINGTON UNIVERSITY, priority 2020, published 2023)

Key:
J-LAT cells [1] = assay: Latency reversal (GFP expression) in J-LAT cells, a model of latent HIV cells; type: cell-based
Method: To determine the efficiency of free Poly I:C compared to PolyIC-PBNPs on HIV reactivation, increasing concentrations were added to J-LAT cells. Specifically, nanoparticles (PolyIC-PBNP) were generated at varying Poly I:C concentrations (1.75, 1, 1.5 and 0.75 mg/mL) and added to the cell culture medium to treat the J-LAT cells.

J-LAT cells [2] = assay: Viability / cytotoxicity of treated J-LAT cells; details: 1-15 μL, not transfected, FIG. 4B
Method: Example 3. […] J-LAT cells harbor latent, transcriptionally competent HIV provirus that encodes green fluorescent protein (GFP) as an indicator of HIV-1 reactivation. […] Generally for effective latency reversal, free Poly I:C has to be delivered into the cytoplasm of the latently infected cells via transfection.
Next, J-LAT cells were treated with increasing concentrations of Citrate-PBNP, PEI-PBNP or polyIC-PBNP (1 μL, 5 μL, 10 μL and 15 μL with [PBNP]=2 mg/mL and [polyIC]=0.5 mg/mL) where the PBNPs were added to the cell media (i.e., the PBNPs were not transfected into the cells).

[3] = system: peripheral blood mononuclear cells (PBMCs); assay: Flow cytometry of immune cell ratios and activation in treated PBMCs; type: cell-based, human; details: compared to untreated PBMCs, FIG. 6G
Method: Example 4. Primary peripheral blood mononuclear cells (PBMCs) were isolated from blood collected from healthy human donors. PBMCs were incubated with increasing concentrations of Poly-PBNP (50, 5 and 1 μg/mL of attached PolyIC) and same concentrations of Free-Poly I:C overnight. PMA (Phorbol 12-myristate 13-acetate), a known immune-stimulator, was used as positive control herein. Following this treatment, the number of viable cells was assessed.
Treated PBMCs were subjected to flow cytometry to examine ratios of immune cells in response to Poly-PBNP and Free-Poly I:C treatments. […] There was no change in the amount of NK cells (CD56+ cells) for any of the treatment groups studied, compared to untreated PBMCs (FIG. 6F).

Substance: polyinosinic-polycytidylic acid [Free Poly I:C]
- Hill Slope (best-fit value) (J-LAT cells [1]; HIV reactivation in J-LAT cells, overnight, log(agonist) vs. normalized response, variable slope): 1.904
- latency reversal at increasing concentrations (J-LAT cells [1]; J-LAT cells, 1, 5, 10 and 15 μL added to cell media, not transfected, FIG. 4A): reversed latency in a dose dependent manner
- EC50 of HIV reactivation (GFP expression) (J-LAT cells [1]; J-LAT cells, overnight incubation, Table 1 prints none): 6.944 µg/mL
- cytotoxicity at increasing concentrations (J-LAT cells [2]): caused cytotoxicity at higher concentrations
- NK cells activation (CD56+CD69+) [3]: no changes
